Values quoted from earlier work as cited in patent US20070141149A1, “Controlled-release pharmaceutical formulation” (priority 2003, published 2007).
Read-outs that look alike come from different tables or passages of the source.

Conditions: orally administered

For `CCOc1ccccc1OCCN[C@H](C)Cc1ccc(OC)c(S(N)(=O)=O)c1` [tamsulosin], which bioavailability (on an empty stomach) is on record?
Its bioavailability is roughly 100%.

And the bioavailability (taken during meals)?
Its bioavailability is “decreased”.

And the cmax (taken during meals)?
Its cmax is “decreased”.
